The values below come from ChEMBL document CHEMBL3399937, “(18)F-AmBF3-MJ9: a novel radiofluorinated bombesin derivative for prostate cancer imaging” (Bioorg Med Chem, 2015).

The structures appear in SMILES notation.

The experiment has as its target Gastrin-releasing peptide receptor (Rattus norvegicus) (UniProt P52500). Kind of experiment: Binding affinity to rat pancreatic acini GRPR.

Chain of Gastrin-releasing peptide receptor (Rattus norvegicus) (P52500 whole entry): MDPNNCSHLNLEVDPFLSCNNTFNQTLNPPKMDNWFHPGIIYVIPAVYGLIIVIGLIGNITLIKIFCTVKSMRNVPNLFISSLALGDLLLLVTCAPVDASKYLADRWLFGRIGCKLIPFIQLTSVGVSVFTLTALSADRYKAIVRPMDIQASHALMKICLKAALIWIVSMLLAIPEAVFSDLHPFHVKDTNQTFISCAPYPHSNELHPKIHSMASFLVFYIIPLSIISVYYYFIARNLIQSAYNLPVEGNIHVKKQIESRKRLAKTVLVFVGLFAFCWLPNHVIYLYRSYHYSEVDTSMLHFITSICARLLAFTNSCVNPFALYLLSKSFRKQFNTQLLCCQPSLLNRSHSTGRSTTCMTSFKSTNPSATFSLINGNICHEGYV

For `CC(C)C[C@H](NC(=O)C[C@H](O)[C@H](CC(C)C)NC(=O)[C@H](Cc1cnc[nH]1)NC(=O)CNC(=O)[C@@H](NC(=O)[C@H](C)NC(=O)[C@H](Cc1c[nH]c2ccccc12)NC(=O)[C@H](CCC(N)=O)NC(=O)[C@H](N)Cc1ccccc1)C(C)C)C(N)=O`, the Activity worked out at 0.9 nM.
